Source: PubChem BioAssay AID712 (Emory University Molecular Libraries Screening Center, 2007)
Calls of active or inactive are those of the source. No rule for the calls is given here.

What follows are compounds tested against Heat shock protein HSP 90-alpha (Homo sapiens) (UniProt P07900) (assay: Hsp90 blockade concentration-response – dose response (AID 712)). Details: Hsp90 inhibition assay.

Structure (SMILES) | IC50
C[C@H]1CCCC(=O)CCCCCc2cc(O)cc(O)c2C(=O)O1 | 2.2 µM
COc1ccc(C2=NO[C@@H]3C(=O)N(c4ccc5c(c4)OCCO5)C(=O)[C@H]23)cc1OC | 29.7 µM
CC(C)NCCCC(C)Nc1cc(O)cc2cccnc12 (centres undefined) | 1.56 µM
CCOC(=O)NC1(NCc2ccccc2)Oc2ccccc2O1 | inactive
Cc1c(-c2nn(C)c(=O)c3ccccc23)oc2ccc(F)cc2c1=O | 2.46 µM
Cc1cccc(NC(=O)Cn2nnc(-c3cccs3)n2)c1C | > 50 µM (inactive)
COc1cc(NCCCC(C)N)c2ncccc2c1 (centres undefined) | > 50 µM (inactive)
N#Cc1c(N2CCCC2)nc(N)c2c(N)nc(N3CCCC3)cc12 | 2.41 µM
Nc1cc2c(c(O)c1O)C(=O)c1ccccc1C2=O | < 1.56 µM
Cn1c(=O)c2c(nc(CN3CCc4ccccc4C3)n2CCCO)n(C)c1=O | > 50 µM (inactive)
Cc1ccc(OC(=O)c2ccc(N)cc2O)cc1 | > 50 µM (inactive)
O=C1C(c2cnc3ccccc3n2)=C(O)c2ccccc21 | 20 µM
O=C(OC1CCc2ccccc2C1=O)c1ccccc1O (centres undefined) | > 50 µM (inactive)
CCn1c(CSc2nnc(-c3cccnc3)n2-c2ccccc2C)nc2cc(C(=O)O)ccc21 | 0.679 µM
CCCCn1c(NC(=O)c2ccccc2)c(C#N)c2nc3ccccc3nc21 | 27.1 µM
CCOC(=O)NC1(Nc2ccc(Cl)cn2)Oc2ccccc2O1 | > 50 µM (inactive)
O=C(O)c1ccc2c3c(ncnc13)-c1ccccc1C2=O | 5.22 µM
COc1ccc2c(c1-c1cc(NS(=O)(=O)c3cccc([N+](=O)[O-])c3)ccc1N)OCO2 | > 50 µM (inactive)
O=C(O)c1cc(O)c2c(c1)C(=O)c1cccc(O)c1C2=O | 3.34 µM
Nc1cc(N)c(OCC(F)(F)F)cc1OCC(F)(F)F | inactive
CC(C)NCCCCCNc1cc(O)cc2cccnc12 | 6.25 µM
Nc1ccc(Nc2nc3ccccc3s2)c(O)c1 | > 50 µM (inactive)
COc1cc(NS(=O)(=O)c2ccc(F)c(C#N)c2)c2ncccc2c1 | > 50 µM (inactive)
Cc1ccc(S(=O)(=O)C(CCC(=O)N2CCOCC2)S(=O)(=O)c2ccc(C)cc2)cc1 | > 50 µM (inactive)
O=C(O)CCC(=O)NCc1ccc2[nH]c3c(c2c1)CCCC3 | > 50 µM (inactive)
NNc1ccc2c(Cl)cc(Cl)c(O)c2n1 | > 50 µM (inactive)
O=c1c(-c2ccc3c(c2)OCCO3)coc2c(CN3CCOCC3)c(O)ccc12 | > 50 µM (inactive)

Structure (SMILES) | IC50
O=C(c1ccc2ccccc2c1)N1CCN(c2ccc(O)cc2)CC1 | > 50 µM (inactive)
Nc1cc(Cl)cc2cccnc12 | > 50 µM (inactive)
O=C(c1cc(-c2ccncc2)nc2ccc(Br)cc12)N1CCN(c2ccccn2)CC1 | > 50 µM (inactive)
O=C1c2ccccc2C(Nc2ccc3c(c2)OCO3)N1Cc1ccc2c(c1)OCO2 (centres undefined) | > 50 µM (inactive)
O=S(=O)(Nc1ccc(Cl)cc1O)c1ccccc1 | > 50 µM (inactive)
COC(=O)c1cc(=O)[nH]c2ccc(C)cc12 | > 50 µM (inactive)
c1ccc2sc(SCc3ccc(-c4nnco4)cc3)nc2c1 | > 50 µM (inactive)
O=C1C2C3C=CC(C3)C2C(=O)N1CNc1ccc(O)cc1 (centres undefined) | 14.7 µM
O=C(NC1(C(F)(F)F)Oc2ccc(Cl)cc2O1)N1CCC2(CC1)OCCO2 (centres undefined) | 23.4 µM
Nc1nonc1N1CCCCC1 | > 50 µM (inactive)
Cn1c(=O)c2c(nc(Oc3ccc4c(c3)OCO4)n2Cc2ccc(Cl)cc2)n(C)c1=O | > 50 µM (inactive)
CCc1ccc(CNc2ccc(N3CCN(C(C)=O)CC3)cc2)cc1 | inactive
Oc1ccc2ccccc2c1C=NC12CN3CCN(CN(C3)C1)C2 | 6.41 µM
Nc1ccc(NS(=O)(=O)c2ccccc2)c(O)c1 | > 50 µM (inactive)
CC(=O)CCc1c(C)[nH]c2ccccc2c1=O | > 50 µM (inactive)
O=c1cc(NCCCO)c2ccccc2o1 | > 50 µM (inactive)
CC(C)c1cc(Nc2cccc(O)c2)cc(C(C)C)c1O | 27.2 µM
Oc1c(Cl)cc(Cl)c2cccnc12 | > 50 µM (inactive)
CC(C)CN1C(=O)NC(NC(=O)c2ccco2)(C(F)(F)F)C1=O (centres undefined) | > 50 µM (inactive)
COc1cc(NCC(O)CN(CC(C)C)CC(C)C)c2nc(C)ccc2c1 (centres undefined) | > 50 µM (inactive)
CC(=O)Oc1cccc2c1C(=O)c1c(OC(C)=O)cc(C(=O)O)cc1C2=O | 9.23 µM
O=S(=O)(Nc1cc(OCc2ccccc2)cc2cccnc12)c1ccc(F)cc1 | > 50 µM (inactive)
Oc1ccc2[nH]ccc2c1 | > 50 µM (inactive)
Nc1ccc(Cc2ccccc2)c(O)c1 | > 50 µM (inactive)
CCOC(=O)N1CCC(NC(=O)CSCc2nc(-c3sccc3C)oc2C)CC1 | > 50 µM (inactive)
O=C(COc1ccccc1Cl)c1ccc(O)cc1O | > 50 µM (inactive)
CC(=O)Nc1cc(OC(C)=O)c2nonc2c1OC(C)=O | 5.7 µM

Structure (SMILES) | IC50
CC(=O)c1ccc(NC(=O)CSc2nnc(Cc3cccn3C)n2-c2ccc(F)cc2)cc1 | > 50 µM (inactive)
OCCN(CCO)c1nc(N2CCCCC2)c2nc(N(CCO)CCO)nc(N3CCCCC3)c2n1 | 21.1 µM
CCOC(=O)Cc1c[nH]c2ccc(N)cc12 | > 50 µM (inactive)
COc1ccc(S(=O)(=O)Nc2ccc(O)c(-c3ccccc3O)c2)cc1OC | > 50 µM (inactive)
COc1cccc(C(=O)NC2CC3CCCC(C2)N3CC(=O)Nc2ccccc2)c1 (centres undefined) | 15.7 µM
CCOc1ccc2ccccc2c1-c1cc(NS(=O)(=O)c2cc(Cl)ccc2Cl)ccc1NC(=O)OC(C)(C)C | > 50 µM (inactive)
Cc1ccc(S(=O)(=O)Nc2ccc(F)c(-c3c(O)ccc4c3OCO4)c2)cc1 | 25 µM
CCn1nc(-c2ccccc2)nc2c(=O)n(C)c(=O)nc1-2 | 0.136 µM
O=C1C(C2=C(O)c3ccccc3C2=O)=Nc2ccccc21 | > 50 µM (inactive)
COc1ccc2c(c1-c1cc(NS(=O)(=O)c3cccc(N)c3)ccc1N)OCO2 | > 50 µM (inactive)
COc1ccc(C(=O)c2c(C)n(C)c(=O)n(C)c2=O)cc1 | > 50 µM (inactive)
Cc1ccc(NC(=O)CC2SCCNC2=O)cc1Cl (centres undefined) | > 50 µM (inactive)
CC(C)OC(=O)CSc1nc2ccccc2s1 | > 50 µM (inactive)
OCCCc1nc2n(n1)C(c1ccccc1)C=C(c1ccccc1)N2 (centres undefined) | > 50 µM (inactive)
CCc1cc(C(=O)Cc2ccc(F)cc2)c(O)cc1O | > 50 µM (inactive)
CCSCCOC(=O)C1=C(C)NC(=O)NC1c1ccccc1 (centres undefined) | > 50 µM (inactive)
COc1ccc(C2=NO[C@@H]3C(=O)N(c4c(C)cccc4C)C(=O)[C@H]23)cc1OC | 25.4 µM
CCOC(=O)c1c(C)[nH]c2ccc(O)cc12 | > 50 µM (inactive)
Cc1ccccc1OCC(O)Cn1c(NCCN(C)C)nc2c1c(=O)n(C)c(=O)n2C (centres undefined) | > 50 µM (inactive)
COc1cc(NCCN(CC(C)C)CC(C)C)c2ncccc2c1 | inactive
Cc1ccc(S(=O)(=O)Nc2cc(O)cc3cccnc23)cc1 | > 50 µM (inactive)
COc1cc(NC(=O)CCCCCCN)c2ncccc2c1 | > 50 µM (inactive)
COc1cc(N)c2nccc(Cl)c2c1 | > 50 µM (inactive)
COC(=O)C1=C(C)N(c2cccc3ccccc23)C(=O)C1 | > 50 µM (inactive)
C[C@H]1CCC[C@H](O)CCCCCc2cc(O)cc(O)c2C(=O)O1 | 2.65 µM
